# Laboratory results: patent publication US20180104224A1, “PHARMACEUTICAL COMPOSITIONS COMPRISING ANTIBACTERIAL AGENTS” (priority 2014, published 2018)
# Assays:
# [1] = system: Pseudomonas aeruginosa 1405; experiment: Time kill study; type: cell-based; settings: P. aeruginosa 1405; for effect on bacterial counts through out the duration of the study (in words): when used alone
# Procedure: (§1) The synergistic killing effect of the combinations according to invention was studied by performing time kill studies. In a typical time kill study, the freshly grown cultures were diluted to the required cell density (initial starting inoculum) in Cation adjusted Muller Hinton broth medium (BD, USA). The antibacterial agents (either alone or in combination) at the required concentrations were added into the culture-containing medium. The samples were incubated under shaking condition (120 rpm) at 37° C. Enumeration of viable bacterial count was done every 2 hour by diluting in normal saline and plating on to the Tryptic Soya Agar plates (BD, USA). The plates were incubated for 24 hours to arrive at the viable bacterial count. The results are expressed in terms of Log10 CFU per ml. In general, the decrease of 1 Log10 CFU/ml, corresponds to 90% killing of bacteria.
# [2] = system: Pseudomonas aeruginosa R70; experiment: Time kill study; type: cell-based; settings: P. aeruginosa R70; for effect on bacterial counts through out the duration of the study (in words): when used alone
# Procedure: as §1
# P. aeruginosa R 70 = experiment: MIC determination in Muller Hinton Agar (CLSI);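 for MIC (mcg/ml) of carbapenem in presence of [A] at 4 mcg/ml: MIC read as lowest concentration giving complete growth inhibition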;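 for MIC (mcg/ml) of carbapenem in presence of [B] at 4 mcg/ml: MIC read as lowest concentration giving complete growth inhibition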; type: cell-based, Pseudomonas aeruginosa; settings: for MIC: Pseudomonas aeruginosa, R70, 18 h, agent alone, P. aeruginosa R 70 [Reduced OprD + increased efflux]
# Procedure: (§2) The antibacterial activity of combinations according to the invention against resistant bacterial strains was investigated. Minimum Inhibitory Concentration (MIC) determination for the combinations according to invention was carried out in Muller Hinton Agar (MHA) (BD, USA) according to Clinical and Laboratory Standards Institute (CLSI) recommendations, (Clinical and Laboratory Standards Institute (CLSI), Performance Standards for Antimicrobial Susceptibility Testing, 20th Informational Supplement, M 100-S20, Volume 30, No. 1, 2010). In short, the test strains were adjusted to deliver about 10^4 CFU per spot with a multipoint inoculator (Applied Quality Services, UK). The plates were pored with MHA containing doubling concentration range of the test combinations according to invention. The plates were inoculated and were incubated at 35° C. for 18 hours.
# P. aeruginosa J 154 = experiment: MIC determination in Muller Hinton Agar (CLSI); type: cell-based, Pseudomonas aeruginosa; settings: for MIC: Pseudomonas aeruginosa, J154, agent alone, P. aeruginosa J 154 [Reduced OprD]
# Procedure: as §2
# [3] = system: highly resistant strains of Pseudomonas aeruginosa; experiment: MIC determination, all strains; type: cell-based; settings: highly resistant strains of P. aeruginosa
# Procedure: as §2
# The results on antibacterial activity of a carbapenem antibacterial agent selected from imipenem, meropenem, ertapenem and doripenem alone and in combination with Compound A or Compound B, against highly resistant strains of Pseudomonas aeruginosa are given in Table 1. […] For example, P. aeruginosa 2779 harbors resistance due to increased AmpC expression (300 times) and increased efflux; P. aeruginosa 1405 harbors resistance due to increased AmpC expression (600 times), reduced OprD expression and increased efflux; P. aeruginosa R 70 harbors resistance due to reduced OprD expression and increased efflux; and P. aeruginosa J 154 harbors resistance due to reduced OprD.
# P. aeruginosa 2779 = experiment: MIC determination in Muller Hinton Agar (CLSI); type: cell-based, Pseudomonas aeruginosa;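 note: MIC read as lowest concentration giving complete growth inhibition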
# Procedure: as §2
# P. aeruginosa 1405 = experiment: MIC determination in Muller Hinton Agar (CLSI); type: cell-based, Pseudomonas aeruginosa;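 note: MIC read as lowest concentration giving complete growth inhibition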
# Procedure: as §2
# [4] = in presence of Compound A at 4 mcg/ml
# [5] = in presence of Compound B at 4 mcg/ml
SMILES,effect on bacterial counts through out the duration of the study (in words) [1],"Bacterial count (Log10 CFU/ml) 0 hour ([1]; Table 3, single agent 4 mcg/ml) [Log10 CFU/ml]","Bacterial count (Log10 CFU/ml) 2 hour ([1]; Table 3, single agent 4 mcg/ml) [Log10 CFU/ml]","Bacterial count (Log10 CFU/ml) 4 hour ([1]; Table 3, single agent 4 mcg/ml) [Log10 CFU/ml]","Bacterial count (Log10 CFU/ml) 6 hour ([1]; Table 3, single agent 4 mcg/ml) [Log10 CFU/ml]",effect on bacterial counts through out the duration of the study (in words) [2],"Bacterial count (Log10 CFU/ml) 0 hour ([2]; Table 5, single agent 4 mcg/ml) [Log10 CFU/ml]","Bacterial count (Log10 CFU/ml) 2 hour ([2]; Table 5, single agent 4 mcg/ml) [Log10 CFU/ml]","Bacterial count (Log10 CFU/ml) 4 hours ([2]; Table 5, single agent 4 mcg/ml) [Log10 CFU/ml]","Bacterial count (Log10 CFU/ml) 6 hour ([2]; Table 5, single agent 4 mcg/ml) [Log10 CFU/ml]",MIC (P. aeruginosa R 70) [µg/mL],MIC (P. aeruginosa J 154) [µg/mL],MIC values (in words) ([3]; when used alone),other results
"O=C(NNC(=O)[C@@H]1CC[C@@H]2CN1C(=O)N2OS(=O)(=O)O)[C@@H]1CCNC1 [Compound B, trans-sulfuric acid mono-[2-(N′-[(R)-pyrrolidin-3-carbonyl]-hydrazinocarbonyl)-7-oxo-1,6-diaza-bicyclo[3.2.1]oct-6-yl]ester]",failed to reduce the bacterial counts,6.81,6.54,6.65,6.7,failed to reduce the bacterial counts,6.44,6.2,6.4,6.0,2,8,higher MIC values,"Bacterial count (Log10 CFU/ml) 0 hour ([1]; Table 3, single agent 2 mcg/ml): 6.81 Log10 CFU/ml; Bacterial count (Log10 CFU/ml) 2 hour ([1]; Table 3, single agent 2 mcg/ml): 6.48 Log10 CFU/ml; Bacterial count (Log10 CFU/ml) 4 hour ([1]; Table 3, single agent 2 mcg/ml): 7.6 Log10 CFU/ml; Bacterial count (Log10 CFU/ml) 6 hour ([1]; Table 3, single agent 2 mcg/ml): 7.5 Log10 CFU/ml; Bacterial count (Log10 CFU/ml) 0 hour ([2]; Table 5, single agent 2 mcg/ml): 6.44 Log10 CFU/ml; Bacterial count (Log10 CFU/ml) 2 hour ([2]; Table 5, single agent 2 mcg/ml): 7.11 Log10 CFU/ml; Bacterial count (Log10 CFU/ml) 4 hours ([2]; Table 5, single agent 2 mcg/ml): 7.3 Log10 CFU/ml; Bacterial count (Log10 CFU/ml) 6 hour ([2]; Table 5, single agent 2 mcg/ml): 7.6 Log10 CFU/ml"
"C[C@@H](O)[C@H]1C(=O)N2C(C(=O)O)=C(S[C@@H]3CN[C@H](C(=O)N(C)C)C3)[C@H](C)[C@H]12 [Meropenem, meropenem]",failed to reduce the bacterial counts,6.81,6.8,7.0,7.3,failed to reduce the bacterial counts,6.44,6.14,7.07,7.3,> 32,16,higher MIC values,"Bacterial count (Log10 CFU/ml) 0 hour ([1]; Table 2, single agent 4 mcg/ml): 6.84 Log10 CFU/ml; Bacterial count (Log10 CFU/ml) 2 hour ([1]; Table 2, single agent 4 mcg/ml): 5.95 Log10 CFU/ml; Bacterial count (Log10 CFU/ml) 4 hour ([1]; Table 2, single agent 4 mcg/ml): 6.89 Log10 CFU/ml; Bacterial count (Log10 CFU/ml) 6 hour ([1]; Table 2, single agent 4 mcg/ml): 7.02 Log10 CFU/ml; Bacterial count (Log10 CFU/ml) 0 hour ([2]; Table 4, single agent 4 mcg/ml): 6.62 Log10 CFU/ml; Bacterial count (Log10 CFU/ml) 2 hour ([2]; Table 4, single agent 4 mcg/ml): 7.07 Log10 CFU/ml; Bacterial count (Log10 CFU/ml) 4 hour ([2]; Table 4, single agent 4 mcg/ml, 4 hour): 6.84 Log10 CFU/ml; Bacterial count (Log10 CFU/ml) 6 hour ([2]; Table 4, single agent 4 mcg/ml): 8.36 Log10 CFU/ml; MIC (mcg/ml) of carbapenem in presence of [A] at 4 mcg/ml (P. aeruginosa R 70; in presence of Compound A at 4 mcg/ml, P. aeruginosa R 70): 16 µg/mL; MIC (mcg/ml) of carbapenem in presence of [B] at 4 mcg/ml (P. aeruginosa R 70; in presence of Compound B at 4 mcg/ml, P. aeruginosa R 70): ≤0.12 µg/mL; MIC (mcg/ml) of carbapenem in presence of [A] at 4 mcg/ml (P. aeruginosa 2779; [4]): 0.12 µg/mL; MIC (mcg/ml) of carbapenem in presence of [B] at 4 mcg/ml (P. aeruginosa 2779; [5]): 0.12 µg/mL; MIC (mcg/ml) of carbapenem in presence of [A] at 4 mcg/ml (P. aeruginosa 1405; [4]): 4 µg/mL; MIC (mcg/ml) of carbapenem in presence of [B] at 4 mcg/ml (P. aeruginosa 1405; [5]): 0.12 µg/mL; MIC (mcg/ml) of carbapenem in presence of [A] at 4 mcg/ml (P. aeruginosa J 154; in presence of Compound A at 4 mcg/ml, P. aeruginosa J 154): 8 µg/mL; MIC (mcg/ml) of carbapenem in presence of [B] at 4 mcg/ml (P. aeruginosa J 154; in presence of Compound B at 4 mcg/ml, P. aeruginosa J 154): <0.25 µg/mL; MIC values (in words) ([3]; in presence of Compound A or Compound B): decreased significantly"
